From US20240352022A1, “GROUP OF IMB-C5 SERIES COMPOUNDS HAVING ANTI-CORONAVIRUS ACTIVITY AND APPLICATION THEREOF” (priority 2021, published 2024)
pEC50: −log10 of the molar value.

Tests used:
[1] = from reference [5]; cited from earlier work
[2] = tested on: HCoV-229E; test: dsRNA production during replication of HCoV-229E in Huh7 cells (immunofluorescence assay); assay type: cell-based, Human coronavirus HCoV-229E
[3] = tested on: HCoV-OC43; test: N protein level of HCoV-OC43 in C3A cells (Western Blotting); assay type: cell-based, Human coronavirus HCoV-OC43; settings: MOI=0.023, three concentrations, 24 h
Protocol: The viral N protein level was determined after 24 h.
The effect of IMB-C5 and IMB-85 on N protein level of coronavirus HCoV-OC43 was determined. C3A cells were infected at a viral load of MOI=0.037, and simultaneously administered with IMB-C5 (10 μM), IMB-85 (10 μM, 2 μ, 0.4 μM and 0.08 μM) and MNP (the positive control, 15 μM). After 24 h, the protein was extracted for Western blotting.

[4] = in vitro; settings: human
[5] = CCK-8 cytotoxicity assay in Huh7.5 cells; assay type: cell-based; settings: human, Huh7.5 hepatocellular carcinoma cells, CCK-8, 48 hours, read-out: TC50
Protocol: (§1) In order to determine the possible cytotoxicity of IMB-C5 and IMB-85, the CCK-8 assay was first used to detect the effect of the two compounds at different concentrations on viability of different cells 48 hours after administration.

[6] = tested on: HCoV-229E; test: anti-HCoV-229E activity in Huh7.5 cells by cytopathic effect (CPE) assay; assay type: cell-based, Human coronavirus HCoV-229E; settings: Human coronavirus 229E, HCoV-229E 100 TCID50 in Huh7.5 cells, about 48 h
[7] = in vitro; settings: human; remark: listed apart in the source
[8] = CCK-8 cytotoxicity assay in Huh7 cells; assay type: cell-based; settings: human, Huh7 hepatocellular carcinoma cells, CCK-8, 48 hours, read-out: TC50
Protocol: as §1

[9] = tested on: HCoV-229E; test: mRNA level of HCoV-229E N protein in Huh7.5 cells (RT-qPCR); assay type: cell-based, Human coronavirus HCoV-229E; settings: MOI=0.035, three concentrations, 24 h
[10] = tested on: HCoV-229E; test: mRNA level of HCoV-229E N protein in Huh7 cells (RT-qPCR); assay type: cell-based, Human coronavirus HCoV-229E; settings: MOI=0.035, three concentrations, 24 h
[11] = in vitro; settings: African green monkey
[12] = tested on: HCoV-229E; test: anti-HCoV-229E activity in Huh7 cells by cytopathic effect (CPE) assay; assay type: cell-based, Human coronavirus HCoV-229E; settings: Human coronavirus 229E, Huh-7, HCoV-229E 100 TCID50 in Huh7 cells, about 48 h
[13] = tested on: HCoV-OC43; test: time-of-addition experiment, HCoV-OC43 in C3A cells (immunofluorescence assay); assay type: cell-based, Human coronavirus HCoV-OC43; settings: 50 μM
[14] = tested on: HCoV-OC43; test: mRNA level of HCoV-OC43 N protein in C3A cells (RT-qPCR); assay type: cell-based, Human coronavirus HCoV-OC43; settings: MOI=0.023, three concentrations, 24 h

COc1cccc(Cn2c(NCCO)nc3c2c(=O)n(C)c(=O)n3C)c1 [IMB-C5]
effect on blood lipids and atherosclerotic plaque formation [1]: good effect on lowering blood lipids and inhibiting atherosclerotic plaque formation | dsRNA production during replication of HCoV-229E ([2]; MOI=0.035, gradient concentrations, 24 h): had an inhibitory effect on dsRNA production | dsRNA production during replication of HCoV-229E ([2]; MOI=17, 24 h): inhibited dsRNA production | N protein level of HCoV-OC43 [3]: inhibited the expression of the viral N protein in a dose-dependent manner | CC50 [4]: > 139 µM | CC50 at 48 h [5]: > 200 µM | pEC50 [6]: 4.57 | CC50 [7]: > 139 µM | CC50 at 48 h [8]: > 200 µM | mRNA level of HCoV-229E N protein [9]: decreased mRNA level of HCoV-229E N protein in both Huh7 and Huh7.5 cells in a dose-dependent manner | mRNA level of HCoV-229E N protein [10]: decreased mRNA level of HCoV-229E N protein in both Huh7 and Huh7.5 cells in a dose-dependent manner | CC50 [11]: 493 µM | pEC50 [12]: 5.18 | antiviral effect, time of addition ([13]; HCoV-OC43 MOI=0.28, administered 1 h to 4 h after infection): better antiviral effect | antiviral effect, time of addition ([13]; HCoV-OC43 MOI=0.28, administered 6 h or more after infection): greatly diminished antiviral effect | antiviral effect, time of addition ([13]; HCoV-OC43 MOI=0.28, administered at the time of virus infection): most significant inhibitory effect on virus | mRNA level of HCoV-OC43 N protein [14]: decreased mRNA level of HCoV-OC43 N protein in C3A cells in a dose-dependent manner
